Patent publication US5250539A, “Hexahydrobenzo[f]quinolinones” (priority 1991, dated 1993)
Read-outs that look alike come from different tables or passages of the source.

Biological target: T1, 5α-Reductase (Homo sapiens, UniProt P18405)
T1 construct: host or cells: Hs68 human genital skin fibroblasts
T1 sequence (P18405 1-259): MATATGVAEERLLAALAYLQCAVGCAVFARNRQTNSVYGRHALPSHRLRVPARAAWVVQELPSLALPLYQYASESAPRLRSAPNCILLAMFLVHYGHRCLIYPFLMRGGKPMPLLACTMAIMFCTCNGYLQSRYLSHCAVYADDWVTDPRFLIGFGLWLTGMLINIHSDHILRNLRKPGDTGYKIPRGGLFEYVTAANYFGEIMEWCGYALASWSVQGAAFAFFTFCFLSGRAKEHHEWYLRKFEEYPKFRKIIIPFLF
Assay: Inhibition of 5α-reductase in Hs68 human genital skin fibroblasts (conversion of labelled testosterone, TLC)
Assay type: cell-based
Experimental: Cell Culture: 5α-Reductase activity was measured using Hs68 human genital skin fibroblasts which were originally purchased from the American Type Culture Collection (Rockville, Md.). The cells were grown in Dulbecco's Modified Eagle's Medium (DMEM) plus 10% stripped fetal bovine serum which was supplemented with amphotericin B (0.25 μg/ml) and gentamicin (25.0 μg/ml) (GIBCO, Grand Island, N.Y.). The serum was stripped of endogenous steroids by incubation with dextran-coated charcoal prior to its addition to the media. The cells were maintained at 37° C. in an atmosphere of 95% air, 5% CO2 and were passaged every 7-10 days by exposure to a trypsin-EDTA solution (0.025% trypsin, 0.265 mM EDTA). Prior to the assay the Hs68 cells were harvested and plated in Falcon 6-well plates (Becton Dickinson Labware, Lincoln Park, N.J.) at a density of 6×10^4 cells per well. The cells were allowed to grow for 4-5 days or until they reached approximately 80% confluence.
Assay Method I: The substrate was prepared by dissolving unlabeled testosterone (Sigma Chemical Co., St. Louis, Mo.) in absolute ethanol followed by the addition of [7-^3 H (N)]-testosterone (23.3 Ci/mmole, New England Nuclear, Boston, Mass.). The steroid solution was taken to dryness under a stream of nitrogen and then reconstituted in media.
Assay Method II: The substrate used for this method was [^14 C]-testosterone (50 mCi/mmol) (New England Nuclear, Boston, Mass.). An aliquot of the substrate was taken to dryness under a stream of nitrogen. After the addition of 30 μl of ethanol, the testosterone was brought up in an appropriate volume of media.
Sample Preparation: The test compounds were dissolved in absolute ethanol in order to achieve the desired concentration. Subsequent dilutions of the test compounds with media were performed by the Biomek 1000 Automated Laboratory Workstation (Beckman Instruments, Palo Alto, Calif.). The existing media in the sample wells was aspirated and replaced with fresh media. Test compound was then added to the wells followed by the addition of 0.5 ml of the substrate. The volume of the incubation mixture was maintained at 2.0 ml. The final substrate concentration was 12 μM. The concentration of the test compounds ranged from 0.001-15 μM. An additional three wells (background) containing media and substrate but no cells were also included to account for the non-enzymatic metabolism of the substrate. The plates were returned to the incubator and incubated for four hours.
At the end of the incubation the media was collected and transferred to an extraction tube containing 5 ml of tolueneethanol (9:1), to which has been added 40-250 μg each of unlabeled carrier steroids (estriol, estradiol, estrone, 5α-androstan-3α,17β-diol, 5α-androstan-3β,17β-diol, 4-androstene-3,17-dione, 5α-androstan-3,17-dione, testosterone, and 5α-dihydrotestosterone) (Steraloids, Inc. Wilton, N.H.). In the case of Assay Method I the extraction tube also contained 1,000 and 10,000 dpm of [4-^14 C]-dihydrotesterone (50-60 mCi/mmol) and [4-^14 C]-testosterone (50 mCi/mmol) (New England Nuclear, Boston, Mass.), respectively. The [^14 C]-steroids were included as recovery standards to quantify procedural losses. A small amount of NaCl was also added to the extraction tubes to prevent foaming. The samples were vortexed for approximately 30 seconds and then centrifuged for 10 minutes at 500×g. The organic phase was collected and the samples taken to dryness, redissolved in dichloromethane-methanol (9:1) and were analyzed by thin layer chromatography using one of the methods described below.

[1] = 1.0 μM test compound, Hs68 cells, 12 μM testosterone, 4 h, read-out: % Inhibition

SMILES	inhibition at 1 µM (Hs68) [%]	inhibition at 1 µM [1] [%]
O=C1CCC2=C(CCc3cccc(F)c32)N1 [Example 20, 10-fluoro-1,2,3,4,5,6-hexahydrobenzo[f]quinolin-3-one]	22	–
CN1C(=O)CCC2=C1CCc1ccccc12 [Example 7, 4-methyl-1,2,3,4,5,6,-hexahydrobenzo[f]quinolin-3-one]	–	48
CN1C(=O)CCC2=C1CCc1cccc(F)c12 [Example 22, 10-fluoro-4-methyl-1,2,3,4,5,6-hexahydrobenzo[f]quinolin-3-one]	–	35
COc1ccc2c(c1)CCC1=C2CCC(=O)N1 [Example 11, 8-methoxy-1,2,3,4,5,6-hexahydrobenzo[f]quinolin-3-one]	–	20
COc1ccc2c(c1)C1=C(CC2)NC(=O)CC1 [Example 26, 9-methoxy-1,2,3,4,5,6-hexahydrobenzo[f]quinolin-3-one]	–	12
O=C1CCC2=C(CCc3c(F)cccc32)N1 [Example 18, 7-fluoro-1,2,3,4,5,6-hexahydrobenzo[f]quinolin-3-one]	–	36
CN1C(=O)CCC2=C1CCc1ccc(F)cc12 [Example 21, 9-fluoro-4-methyl-1,2,3,4,5,6-hexahydrobenzo[f]quinolin-3-one]	–	60
O=C1CCC2=C(CCc3cccc(Br)c32)N1 [Example 16, 10-bromo-1,2,3,4,5,6-hexahydrobenzo[f]quinolin-3-one]	–	14
COc1cccc2c1C1=C(CC2)NC(=O)CC1 [Example 27, 10-methoxy-1,2,3,4,5,6-hexahydrobenzo[f]quinolin-3-one]	–	0
Cc1cccc2c1C1=C(CC2)NC(=O)CC1 [Example 29, 10-methyl-1,2,3,4,5,6-hexahydrobenzo[f]quinolin-3-one]	–	41
COc1cc2c(cc1OC)C1=C(CC2)NC(=O)CC1 [Example 28, 8,9-dimethoxy-1,2,3,4,5,6-hexahydrobenzo[f]quinolin-3-one]	–	33
CN1C(=O)CCC2=C1CCc1c(F)cccc12 [Example 19, 7-fluoro-4-methyl-1,2,3,4,5,6-hexahydrobenzo[f]quinolin-3-one]	–	61
CCN1C(=O)CCC2=C1CCc1cc(F)ccc12 [Example 24, 8-fluoro-4-ethyl-1,2,3,4,5,6-hexahydrobenzo[f]quinolin-3-one]	–	31
O=C1CCC2=C(CCc3cccc(Cl)c32)N1 [Example 17, 10-chloro-1,2,3,4,5,6-hexahydrobenzo[f]quinolin-3-one]	–	0.3
O=C1CCC2=C(CCc3cc(Cl)ccc32)N1 [Example 10, 8-chloro-1,2,3,4,5,6-hexahydrobenzo[f]quinolin-3-one]	–	81
O=C1CCC2=C(CCc3cc(F)ccc32)N1Cc1ccccc1 [Example 23, 8-fluoro-4-benzyl-1,2,3,4,5,6-hexahydrobenzo[f]quinolin-3-one]	–	37
